In ChEMBL document CHEMBL1150268, “Novel potent and selective thrombin inhibitors based on a central 1,4-benzoxazin-3(4H)-one scaffold” (J Med Chem, 2008):

Experiments:
Prothrombin = Prothrombin (Homo sapiens, UniProt P00734); experiment: Inhibition of thrombin
[1] = Inhibition of trypsin
Coagulation factor X = Coagulation factor X (Homo sapiens, UniProt P00742); experiment: Inhibition of factor 10a
[2] = Selectivity for trypsin over thrombin
[3] = Selectivity for factor 10a over thrombin

Sequence of Coagulation factor X (P00742 41-179 limits assumed): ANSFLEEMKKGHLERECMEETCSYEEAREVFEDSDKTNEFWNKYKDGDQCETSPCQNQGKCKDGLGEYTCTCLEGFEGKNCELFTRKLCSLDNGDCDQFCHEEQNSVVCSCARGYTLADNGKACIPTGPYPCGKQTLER
Sequence of Coagulation factor X (P00742 235-488 limits assumed): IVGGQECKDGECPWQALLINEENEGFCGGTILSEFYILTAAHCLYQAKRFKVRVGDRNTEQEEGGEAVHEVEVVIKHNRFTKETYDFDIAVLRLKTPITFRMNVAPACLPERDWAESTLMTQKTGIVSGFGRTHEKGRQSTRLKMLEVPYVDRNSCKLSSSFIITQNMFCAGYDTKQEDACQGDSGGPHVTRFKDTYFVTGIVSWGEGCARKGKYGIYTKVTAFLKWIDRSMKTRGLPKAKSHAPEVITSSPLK

Row | SMILES | Ki (Prothrombin) [nM] | Ki [1] [µM] | Ki (Coagulation factor X) [µM] | Ratio Ki [2] | Ratio Ki [3]
1 | CN1C(=O)C(Cc2ccc(C(=N)N)cc2)Oc2cc(N(Cc3ccccc3)C(=O)CC(=O)O)ccc21 (stereo not given) | 2.6 | 298 | 139 | 112000 | 52500
2 | COC(=O)C(Cc1ccccc1)C(=O)Nc1ccc2c(c1)OC(Cc1ccc(C(=N)N)cc1)C(=O)N2C (stereo not given) | 2730 | 11.2 | 58.7 | 4.1 | 22
3 | CN1C(=O)C(Cc2ccc(C(=N)N)cc2)Oc2cc(N(Cc3ccccc3)C(=O)CCC(=O)O)ccc21 (stereo not given) | 6.5 | 7.41 | 15.9 | 1130 | 2430
4 | COC(=O)CC(=O)N(Cc1ccccc1)c1ccc2c(c1)OC(Cc1ccc(C(=N)N)cc1)C(=O)N2C (stereo not given) | 3.4 | 3.82 | 5.71 | 1130 | 1690
5 | CN1C(=O)C(Cc2ccc(C(=N)N)cc2)Oc2cc(N(Cc3ccccc3)C(=O)C(=O)O)ccc21 (stereo not given) | 11 | 10.1 | 9.27 | 910 | 835
6 | CN1C(=O)C(Cc2ccc(C(=N)N)cc2)Oc2cc(NC(=O)C(Cc3ccccc3)C(=O)O)ccc21 (stereo not given) | 2940 | 5.13 | 33.2 | 1.7 | 11
7 | CCOC(=O)CCC(=O)N(Cc1ccccc1)c1ccc2c(c1)OC(Cc1ccc(C(=N)N)cc1)C(=O)N2C (stereo not given) | 5.8 | 3.1 | 1.05 | 535 | 181
8 | CCOC(=O)C(=O)N(Cc1ccccc1)c1ccc2c(c1)OC(Cc1ccc(C(=N)N)cc1)C(=O)N2C (stereo not given) | 3.6 | 4.29 | 1.94 | 1190 | 537
